± gives the standard deviation of the averaged measurements.
What was measured:
Assay in all cases: level (log10 ratio to DMSO vehicle control); higher = higher biomarker level / cell amount than vehicle control
Settings in all cases: in DMSO
[1] = compound: COC(=O)C(F)(F)C(F)(F)OC(F)(C(F)(F)F)C(F)(F)OC(F)=C(F)F [Methyl perfluoro(3-(1-ethenyloxypropan-2-yloxy)propanoate)]
Description: (§1)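 BioMAP Diversity Plus panel of 12 human primary cell co-culture systems (3C, 4H, LPS, SAg, BT, BF4T, BE3C, CASM3C, HDF3CGF, KF3CT, MyoF, Mphg). Compounds were added 1 h before stimulation and left for 24 h (MyoF 48 h; BT 72 h for soluble read-outs or 6 d for IgG). Biomarkers were read by ELISA, cytotoxicity by SRB, PBMC viability and proliferation by Alamar Blue. Each well value was divided by the mean of 8 DMSO control wells on the same plate and log10 transformed; duplicate blinded samples were tested at 4 concentrations.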

Hexafluoroamylene glycol = compound: OCC(F)(F)C(F)(F)C(F)(F)CO [Hexafluoroamylene glycol]
Description: as §1

Octafluoroadipamide = compound: NC(=O)C(F)(F)C(F)(F)C(F)(F)C(F)(F)C(N)=O [Octafluoroadipamide]
Description: as §1

[2] = compound: O=S(=O)(F)C(F)(F)C(F)(F)C(F)(F)C(F)(F)C(F)(F)C(F)(F)C(F)(F)C(F)(F)F [Perfluorooctanesulfonyl fluoride]
Description: as §1

[3] = compound: FC(F)(F)C(F)(F)C(F)(F)C(F)(F)C(F)(F)C(F)(F)C(F)(F)I [1-Iodopentadecafluoroheptane]
Description: as §1

Nonafluoropentanamide = compound: NC(=O)C(F)(F)C(F)(F)C(F)(F)C(F)(F)F [Nonafluoropentanamide]
Description: as §1

[4] = compound: O=C(O)C=CC(F)(C(F)(F)F)C(F)(F)F [3-(Perfluoroisopropyl)-2-propenoic acid]
Description: as §1

| Test System | level (log10) ([1]; 6700 nM) | level (log10) ([1]; 20000 nM) | level (log10) (Hexafluoroamylene glycol; 6700 nM) | level (log10) (Hexafluoroamylene glycol; 20000 nM) | level (log10) (Hexafluoroamylene glycol; 60000 nM) | level (log10) (Octafluoroadipamide; 6700 nM) | level (log10) (Octafluoroadipamide; 20000 nM) | level (log10) (Octafluoroadipamide; 60000 nM) | level (log10) ([2]; 6700 nM) | level (log10) ([2]; 20000 nM) | level (log10) ([2]; 60000 nM) | level (log10) ([3]; 6700 nM) | level (log10) ([3]; 20000 nM) | level (log10) (Nonafluoropentanamide; 6700 nM) | level (log10) (Nonafluoropentanamide; 20000 nM) | level (log10) (Nonafluoropentanamide; 60000 nM) | level (log10) ([4]; 6700 nM) | level (log10) ([4]; 20000 nM) | level (log10) ([4]; 60000 nM) |
| --- | --- | --- | --- | --- | --- | --- | --- | --- | --- | --- | --- | --- | --- | --- | --- | --- | --- | --- | --- |
| BE3C:Keratin 8/18 | -0.0095 ± 0.049 | -0.004 ± 0.025 | 0.002 ± 0.018 | -0.0155 ± 0.013 | 0.002 ± 0.02 | -0.0115 ± 0.005 | -0.0185 ± 0.0092 | 0.0105 ± 0.043 | -0.012 ± 0.0014 | -0.01 ± 0.016 | -0.0105 ± 0.005 | -0.0075 ± 0.011 | -0.012 | -0.0245 ± 0.0064 | -0.035 ± 0.013 | -0.026 ± 0.0099 | 0.0015 ± 0.019 | -0.0065 ± 0.012 | 0.002 ± 0.0028 |
| KF3CT:CXCL8/IL-8 | 0.001 ± 0.025 | 0.034 ± 0.014 | 0.001 ± 0.044 | -0.0015 ± 0.028 | 0.004 ± 0.02 | -0.005 | -0.0055 ± 0.0021 | 0.0095 ± 0.023 | 0.001 ± 0.028 | 0.0005 ± 0.025 | 0.007 ± 0.0071 | 0.0135 ± 0.0021 | 0.014 ± 0.0028 | -0.0465 ± 0.036 | -0.03 ± 0.014 | -0.0165 ± 0.03 | 0.001 ± 0.013 | 0.0085 ± 0.028 | 0.018 ± 0.0014 |
| BE3C:SRB | -0.005 ± 0.0042 | 0.001 ± 0.0057 | -0.002 ± 0.0014 | -0.006 ± 0.0028 | 0.0075 ± 0.0021 | -0.0005 ± 0.0021 | -0.0055 ± 0.005 | 0.006 ± 0.011 | -0.003 ± 0.0014 | 0.0005 ± 0.005 | 0.0045 ± 0.021 | 0.0095 ± 0.00071 | 0.0085 ± 0.0035 | 0.0035 ± 0.011 | 0.0065 ± 0.0035 | -0.0005 ± 0.005 | -0.0005 ± 0.005 | -0.002 ± 0.0014 | 0.013 ± 0.021 |
| KF3CT:uPA | 0.014 ± 0.021 | 0.0325 ± 0.019 | 0.004 ± 0.0057 | 0.006 ± 0.011 | -0.0065 ± 0.025 | -0.0015 ± 0.018 | 0.0005 ± 0.0035 | 0.0145 ± 0.018 | 0.006 ± 0.011 | 0.008 ± 0.016 | 0.011 ± 0.028 | -0.014 ± 0.013 | 0.0105 ± 0.044 | 0.0205 ± 0.011 | 0.019 ± 0.0042 | 0.011 ± 0.013 | 0.0095 ± 0.0064 | 0.0045 ± 0.0078 | 0.004 ± 0.02 |
| MyoF:Collagen IV | -0.0215 ± 0.04 | -0.0235 ± 0.028 | -0.0165 ± 0.042 | -0.0015 ± 0.026 | -0.0035 ± 0.00071 | -0.0165 ± 0.015 | -0.0065 ± 0.0064 | 0.003 ± 0.038 | 0.0015 ± 0.015 | 0.023 ± 0.025 | 0.0235 ± 0.018 | 0.0705 ± 0.049 | 0.279 ± 0.09 | -0.051 ± 0.12 | -0.0655 ± 0.054 | -0.0655 ± 0.064 | -0.01 ± 0.023 | 0.0025 ± 0.0078 | 0.0205 ± 0.022 |
| KF3CT:MMP-9 | -0.0375 ± 0.0021 | -0.054 ± 0.0071 | -0.0145 ± 0.005 | -0.011 ± 0.025 | -0.0155 ± 0.0035 | -0.0325 ± 0.016 | -0.023 ± 0.0014 | -0.0115 ± 0.03 | -0.012 ± 0.035 | -0.0185 ± 0.032 | -0.0075 ± 0.035 | -0.05 ± 0.11 | -0.0495 ± 0.056 | -0.039 ± 0.027 | -0.0195 ± 0.0021 | -0.0245 ± 0.011 | -0.0175 ± 0.016 | 0.006 ± 0.0071 | 0.018 ± 0.014 |
| KF3CT:IL-1alpha | 0.054 ± 0.02 | 0.071 ± 0.014 | -0.014 ± 0.031 | -0.018 ± 0.0099 | -0.017 ± 0.038 | 0.014 ± 0.0028 | 0 ± 0.037 | 0.017 ± 0.017 | -0.0055 ± 0.026 | 0.007 ± 0.013 | -0.0145 ± 0.026 | -0.006 ± 0.0042 | -0.004 ± 0.0071 | 0.012 ± 0.0085 | 0.011 | 0.0095 ± 0.0064 | -0.0025 ± 0.0064 | 0.0025 ± 0.0092 | 0.001 ± 0.017 |
| BE3C:PAI-I | 0.0185 ± 0.019 | 0.037 ± 0.0071 | -0.0205 ± 0.0021 | -0.017 ± 0.0042 | 0.0115 ± 0.0021 | -0.0145 ± 0.0021 | -0.0295 ± 0.025 | 0 ± 0.059 | -0.021 ± 0.0099 | -0.022 ± 0.052 | -0.0135 ± 0.056 | -0.0185 ± 0.047 | -0.0245 ± 0.037 | -0.087 ± 0.033 | -0.137 ± 0.052 | -0.117 ± 0.044 | 0.0105 ± 0.00071 | -0.003 ± 0.0042 | 0.0065 ± 0.023 |
| CASM3C:CXCL8/IL-8 | -0.004 ± 0.0085 | 0.013 ± 0.0085 | 0.028 ± 0.023 | -0.0055 ± 0.021 | 0.0015 ± 0.021 | -0.007 ± 0.035 | 0.005 ± 0.0028 | -0.005 ± 0.031 | 0.0025 ± 0.00071 | -0.0035 ± 0.0035 | 0.0035 ± 0.016 | -0.0165 ± 0.016 | 0.001 ± 0.017 | -0.003 ± 0.018 | -0.0105 ± 0.012 | 0.0065 ± 0.018 | 0.008 ± 0.025 | 0.0025 ± 0.016 | 0.0225 ± 0.0021 |
| KF3CT:CXCL9/MIG | -0.013 ± 0.013 | -0.0105 ± 0.025 | 0.0155 ± 0.00071 | -0.003 ± 0.0014 | 0.014 ± 0.011 | 0.0075 ± 0.0064 | 0.0035 ± 0.005 | 0.0075 ± 0.005 | 0.007 ± 0.0057 | -0.007 ± 0.0085 | 0.006 ± 0.0085 | 0.0115 ± 0.022 | 0.012 ± 0.014 | 0.006 ± 0.0042 | 0.011 ± 0.0085 | 0.007 ± 0.0099 | -0.0005 ± 0.012 | 0.0005 ± 0.011 | 0 ± 0.0028 |
| CASM3C:CD106/VCAM-1 | -0.024 ± 0.011 | -0.04 ± 0.021 | -0.0015 ± 0.023 | -0.012 ± 0.025 | -0.0015 ± 0.021 | -0.0525 ± 0.005 | -0.04 ± 0.018 | -0.0275 ± 0.033 | 0.0015 ± 0.032 | 0.0035 ± 0.05 | -0.008 ± 0.0085 | -0.0125 ± 0.005 | -0.019 ± 0.034 | -0.0405 ± 0.039 | -0.0105 ± 0.0035 | 0.01 ± 0.042 | -0.0315 ± 0.013 | -0.015 ± 0.0014 | -0.0045 ± 0.071 |
| HDF3CGF:CXCL8/IL-8 | 0.0045 ± 0.011 | 0.0245 ± 0.0064 | -0.0325 ± 0.04 | -0.011 ± 0.0028 | 0.009 ± 0.024 | 0.006 ± 0.017 | 0.0045 ± 0.0092 | 0.007 ± 0.0028 | -0.002 ± 0.0028 | -0.0015 ± 0.00071 | 0.0085 ± 0.0021 | -0.0055 ± 0.00071 | -0.001 | -0.0045 ± 0.0035 | -0.0005 ± 0.0021 | 0.0015 ± 0.005 | -0.008 ± 0.0042 | 0.004 ± 0.011 | 0.0065 ± 0.013 |
| MyoF:Decorin | 0.0595 ± 0.022 | 0.07 ± 0.017 | 0.001 ± 0.0042 | -0.01 ± 0.0042 | -0.015 ± 0.013 | 0.0105 ± 0.035 | -0.0025 ± 0.0092 | 0.017 ± 0.028 | 0.001 ± 0.011 | -0.013 ± 0.0042 | 0.016 ± 0.0057 | 0.0365 ± 0.049 | 0.0215 ± 0.029 | -0.0155 ± 0.0078 | 0.013 ± 0.0028 | -0.0045 ± 0.00071 | -0.0045 ± 0.021 | 0.004 ± 0.0014 | 0.0225 ± 0.029 |
| CASM3C:CXCL9/MIG | -0.0025 ± 0.0078 | -0.007 ± 0.013 | -0.03 ± 0.011 | -0.0225 ± 0.016 | 0.009 ± 0.024 | 0.0115 ± 0.053 | -0.004 ± 0.014 | 0.0215 ± 0.037 | -0.0025 ± 0.00071 | 0.001 ± 0.0057 | 0.0075 ± 0.011 | -0.0165 ± 0.025 | 0.018 ± 0.018 | -0.011 ± 0.013 | -0.029 ± 0.051 | -0.0075 ± 0.074 | -0.004 ± 0.0099 | 0.002 ± 0.0057 | 0.027 ± 0.023 |
| BE3C:uPA | 0.0005 ± 0.0035 | 0.0305 ± 0.012 | -0.0055 ± 0.0078 | -0.013 ± 0.0014 | -0.004 | -0.0155 ± 0.00071 | -0.0055 ± 0.0078 | 0.0005 ± 0.021 | 0.0045 ± 0.0021 | -0.011 ± 0.0057 | 0.004 ± 0.014 | -0.0135 ± 0.0035 | -0.009 ± 0.0099 | 0.0115 ± 0.016 | 0.009 ± 0.0099 | 0.0105 ± 0.0078 | -0.0045 ± 0.005 | -0.001 ± 0.0057 | 0.0045 ± 0.0021 |

— the supplement of paper PMC10331698
